Measured values reported in US12258377B2 (Scancell Limited, priority 2012, dated 2025).
Ends that are not written are not given here.

How the values were obtained:
[1] = tested on: T2 or B16HHD tumour cells; assay: 51Cr-release assay, vim 65 cit CTL lines against HLA-A2 positive target cells; format: cell-based; conditions: peptide pulsed HLA-A2 positive target cells
Procedure: Target cells were labelled for 1 hr with 1.85 MBq sodium (^51Cr) chromate (Amersham, Essex, UK) with or without 10 μg/ml peptide. Post incubation they were washed 3 times in RPMI. Targets 5×10^3/well of a 96-well V-bottomed plates were set up and co incubated with different densities of effector cells in a final volume of 200 μl of RPMI, 10% FCS (Sigma), 20 mM HEPES buffer, 2 mM L-glutamine, 100 units/ml penicillin and 100 μg/ml streptomycin. After 20 hrs at 37° C., 50 μl of supernatants were removed from each well and transferred to a Lumaplate (Packard, Rigaweg, the Netherlands). Plates were read on a Topcount Microplate Scintillation Counter (Packard). Percentage specific lysis was calculated using the following formula: specific lysis=100×[(experimental release−spontaneous release)/(maximum release−spontaneous release)].

splenocytes [2] = assay: Ex vivo elispot assay on splenocytes of immunised HLA-DR1 / HLA-A2/DR1 (HHDII/DR1) transgenic mice; format: in vivo; conditions: stimulation with citrullinated peptide; HLA-A2/DR1 mice
splenocytes [3] = assay: as above; format: in vivo; conditions: HLA-A2/DR1 mice
Procedure: (§1) C57BL/6 mice (Charles River, UK), HLA-DR4 mice (Taconic, USA), HHDII mice (Pasteur institute, France) and HHDII/DRI mice (Pasteur institute, France) were used, aged between 8 and 12 weeks, and cared for by the staff at Nottingham Trent University. All work was carried out under a Home Office project license. Peptides were dissolved in 10% Dimethylformamide to 1 mg/ml and then emulsified (a series of dilutions) with different adjuvants: CpG and MPLA 6 μg/mouse of each (Invivogen, UK), Incomplete Freund's […] (Sigma, UK), and GMCSF 10 μg/mouse (Peprotech, UK). Peptides (25 μg/mouse) were injected subcutaneously at the base of the tail. DNA (1 μg/mouse) was coated onto 1.0 μm gold particles (BioRad, Hemel Hempstead, UK) using the manufacturer's instructions and administered intradermally by genegun (BioRad). Homspera (10 nM/mouse) (PeptideSynthetics, UK) was injected intradermally with genegun immunisation. Mice were immunized at either day 0 for peptide immunisation or days, 0, 7, and 14 for peptide and genegun immunisation. Spleens were removed for analysis at day 14 for peptide and day 20 for peptide or genegun immunisation unless stated otherwise. 400 μg Anti-CD25 antibody (PC61) was administered i.p. in saline 3 days prior to the immunisation. 200 μg Anti-CTLA-4 antibody (UC 10-4F, 10-11) was administered i.p. in saline at day 7 and 14 with either genegun or peptide immunisation.
(§2) Elispot assays were performed using murine IFNγ, IL-17 and IL-10 capture and detection reagents according to the manufacturer's instructions (Mabtech, Sweden). In brief, anti-IFNγ, IL-17 and IL-10 antibodies were coated onto wells of 96-well Immobilin-P plate. Synthetic peptides (at a variety of concentrations) and 5×10^5 per well splenocytes were added to the wells of the plate in triplicate. Tumour target cells were added where relevant at 5×10^4/well in triplicate and plates incubated for 40 hrs at 37° C. After incubation, captured IFNγ, […], IL-17 and IL-10 were detected by biotinylated anti-IFNγ, IL-17 and IL-10 antibodies and developed with a strepatavidin alkaline phosphatase and chromogenic substrate. Spots were analysed and counted using an automated plate reader (Cellular Technologies Ltd). Functional avidity was calculated as the concentration mediating 50% maximal effector function using a graph of effector function versus peptide concentration.

EL4 HHD cells = assay: IFNg elispot of splenocytes against EL4 HHD tumour target cells; format: cell-based, HLA-A2/DR1 transgenic mice; conditions: EL4 HHD over HLA mismatched B16 cells
Procedure: as §2

PBMC = assay: Proliferation assay of PBMC from cancer patients; format: cell-based, human; conditions: PBMC stimulated with 10 μg/ml peptide for 4, 7 and 11 days, 3H-thymidine
Procedure: PBMC were isolated from freshly drawn heparinised blood by Ficol-Hypaque (Sigma) gradient centrifugation. PBMC (1.5×10^6 cells/well) were stimulated with single peptides (final concentration 10 μg/ml) in RPMI containing 5% pooled autologous human serum, 2 mM glutamine, 20 mM HEPES and Penicillin-streptomycin (1%) in a final volume of 2 ml. Stimulation with purified protein derivative, PPD (final concentration 10 μg/ml) served as a positive control for the proliferative capacity of PBMC. As a negative control PBMC were incubated with medium alone. The PBMC were cultured at 37° C. in an atmosphere of 5% CO2 for 4, 7 and 11 days. To assess proliferation at these times points 100 μl in triplicate from each culture was aliquoted into a round bottom well of a 96 well plate and ^3H-thymidine added (0.0185 MBq/well) and incubated at 37° C. for a further 8 hours. The cultures were harvested onto unifilter plates and incorporation of ^3H-thymidine was determined by β-scintillation counting. The results were assessed by calculating the stimulation index (SI) as the ratio of the mean of counts per minute (cpm) of epitope-stimulated to the mean of unstimulated cultures. The proliferative assay was considered positive when SI >2.5.

splenocytes [4] = assay: Ex vivo elispot assay on splenocytes of immunised HLA-DR4 transgenic mice; format: in vivo; conditions: 25 μg peptide with CpG and MPLA day 0, peptide 5 μM
Procedure: as §1, §2

[5] = 25 μg citrullinated peptide day 0, day 14

For “SAVRLRSSVPGVR [citrullinated vim 65 peptide] (not fully specified; also: citrullinated, positions not given here)”, the “cytotoxicity (chromium release)” value [1] was “cytotoxicity of peptide pulsed HLA-A2 positive target cells”, the “phenotype of cells producing IFNγ and TNFa (intracellular cytokine staining)” value (splenocytes [2]) was “CD8 positive” and the “IFNγ elispot response to citrullinated peptide” value (splenocytes [3]; [5]) was “high frequency IFNγ responses”. The “IFNγ elispot response to wild type peptide” value (splenocytes [3]; [5]) was “some cross reactivity to the wild type peptide”, the “IL-10 elispot response to citrullinated peptide” value (splenocytes [3]; [5]) was “Low frequency IL-10 responses” and the “IFNγ response with blockade of MHC class II” value (splenocytes [3]; L243 HLA-DR blocking antibody) was “does not eliminate the citrullinated peptide specific response”. The “recognition of tumour target cells ex vivo” value (EL4 HHD cells) was “good recognition of transgenic HLA-A2 engineered EL4 cell line (EL4 HHD)”, the “patients showing a proliferative response (SI >2.5)” value (PBMC; listed as citrullinated vim 65-77) was 4/9 and the “patients showing a proliferative response (SI >2.5)” value (PBMC; listed as vim 65 cit) was “three of eight”. For the same sequence, the “IL-17 elispot response to citrullinated peptide, mean” value (splenocytes [4]; day 14) was 550 /million splenocytes, the “IL-17 elispot response to wild type peptide, mean” value (splenocytes [4]; day 14) was “no responses” and the “IFNγ elispot response to citrullinated peptide, mean” value (splenocytes [4]; day 14 splenocytes) was 550 /million splenocytes. For the same sequence, the “IFNγ elispot response to wild type peptide, mean” value (splenocytes [4]; day 14 splenocytes) was “no responses”.
